Values joined by “and” are separate entries in the source; they are usually repeats but may differ in a detail not shown here. Identical values can stand only once. Values belong to the compound of their own block, whether it stands above or below them.
Assays:
EGFR (human) [1] = biological target: EGFR (human) (UniProt P00533); conditions: A431
EGFR [2] = biological target: EGFR (UniProt P00533)
MAPK14 (human) [3] = biological target: MAPK14 (human) (UniProt Q16539); assay: Inhibition of TNF-alpha Release from LPS Stimulated hPBMCs; conditions: pbmc
MAPK14 (human), sequence (Q16539 whole entry, looked up): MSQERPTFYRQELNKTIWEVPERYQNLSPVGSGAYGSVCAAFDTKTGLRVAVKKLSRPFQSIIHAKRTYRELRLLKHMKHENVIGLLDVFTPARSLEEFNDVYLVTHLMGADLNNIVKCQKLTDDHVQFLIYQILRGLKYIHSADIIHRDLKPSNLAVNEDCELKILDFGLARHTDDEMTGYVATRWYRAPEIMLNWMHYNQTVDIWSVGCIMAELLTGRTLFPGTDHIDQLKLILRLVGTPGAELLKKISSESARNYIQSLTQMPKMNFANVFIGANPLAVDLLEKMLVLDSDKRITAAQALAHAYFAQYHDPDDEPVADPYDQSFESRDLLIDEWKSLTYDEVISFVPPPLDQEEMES

MAPK14 [4] = biological target: MAPK14 (UniProt Q16539); assay: Inhibition of MAPK Activity
MAPK14, sequence (Q16539 whole entry, looked up): as above

EGFR [5] = biological target: EGFR (UniProt P00533); remark: listed apart in the source
EGFR (human) [6] = biological target: EGFR (human) (UniProt P00533); conditions: a431
EGFR (human) [7] = biological target: EGFR (human) (UniProt P00533); conditions: mkn45, concentration not given here
MAPK14 [8] = biological target: MAPK14 (UniProt Q16539); assay: p38 Inhibition
MAPK14 [9] = biological target: MAPK14 (UniProt Q16539); assay: In Vitro p38 Inhibition
EGFR (human) [10] = biological target: EGFR (human) (UniProt P00533); conditions: a431; remark: listed apart in the source
CDK2;CDK1 = CDK2;CDK1 (UniProt P24941); assay: Cell-Based Assay
EGFR (human) [11] = biological target: EGFR (human) (UniProt P00533); conditions: a431; remark: listed apart in the source
CDK2 (human) [12] = biological target: CDK2 (human) (UniProt P24941); assay: Enzyme Assay
CDK2 (human) [13] = biological target: CDK2 (human) (UniProt P24941); assay: Enzyme Assay; remark: listed apart in the source
EGFR (human) [14] = biological target: EGFR (human) (UniProt P00533); conditions: a431; remark: listed apart in the source
EGFR [15] = biological target: EGFR (UniProt P00533); remark: listed apart in the source
MAP2K1;MAPK14 (human) [16] = biological target: MAP2K1;MAPK14 (human) (UniProt Q16539); assay: Inhibition of LnCAP Cell Proliferation by MTT Assay
MAP2K1;MAPK14 (human), sequence (Q16539 whole entry, looked up): as above

MAP2K1;MAPK14 (mice) = assay: Inhibition of LOVO Cell Proliferation by Xenograft Model; conditions: dose or concentration not given here
MAP2K1;MAPK14 (human) [17] = biological target: MAP2K1;MAPK14 (human) (UniProt Q16539); assay: Inhibition of BXPC3 Cell Proliferation by MTT Assay; conditions: bxpc-3 pancreatic
CDK2 [18] = biological target: CDK2 (UniProt P24941); assay: Enzyme Assay
CDK2 [19] = biological target: CDK2 (UniProt P24941); assay: Enzyme Assay; remark: listed apart in the source
ROCK2 = ROCK2 (UniProt O75116); assay: Inhibition of COS cell Derived Rho kinase (ROCKII)
PIK3CG (human) = PIK3CG (human) (UniProt P48736); assay: Inhibition of PIK3CG Kinase Activity by SPA Assay
CDK2 (human) [20] = biological target: CDK2 (human) (UniProt P24941); assay: Cell-Based Assay; conditions: mcf-7
EGFR [21] = biological target: EGFR (UniProt P00533); remark: listed apart in the source
MAPK14 [22] = biological target: MAPK14 (UniProt Q16539); assay: Inhibition of MAPK14 Kinase Activity
EGFR (human) [23] = biological target: EGFR (human) (UniProt P00533); conditions: a431; remark: listed apart in the source
EGFR (human) [24] = biological target: EGFR (human) (UniProt P00533); conditions: a431; remark: listed apart in the source
EGFR [25] = biological target: EGFR (UniProt P00533); remark: listed apart in the source
MAP2K1;MAPK14 (human) [26] = biological target: MAP2K1;MAPK14 (human) (UniProt Q16539); assay: Inhibition of HT1197 Cell Proliferation by MTT Assay
MAPK14 (human) [27] = biological target: MAPK14 (human) (UniProt Q16539); assay: In vitro Inhibition of LPS-Induced TNF-alpha Release in THP-1 Cells; conditions: thp.1 monocytic
EGFR [28] = biological target: EGFR (UniProt P00533); remark: listed apart in the source
EGFR (murine) [29] = biological target: EGFR (murine) (UniProt P00533); conditions: f/l-herc
EGFR (murine), sequence (P00533 whole entry, looked up): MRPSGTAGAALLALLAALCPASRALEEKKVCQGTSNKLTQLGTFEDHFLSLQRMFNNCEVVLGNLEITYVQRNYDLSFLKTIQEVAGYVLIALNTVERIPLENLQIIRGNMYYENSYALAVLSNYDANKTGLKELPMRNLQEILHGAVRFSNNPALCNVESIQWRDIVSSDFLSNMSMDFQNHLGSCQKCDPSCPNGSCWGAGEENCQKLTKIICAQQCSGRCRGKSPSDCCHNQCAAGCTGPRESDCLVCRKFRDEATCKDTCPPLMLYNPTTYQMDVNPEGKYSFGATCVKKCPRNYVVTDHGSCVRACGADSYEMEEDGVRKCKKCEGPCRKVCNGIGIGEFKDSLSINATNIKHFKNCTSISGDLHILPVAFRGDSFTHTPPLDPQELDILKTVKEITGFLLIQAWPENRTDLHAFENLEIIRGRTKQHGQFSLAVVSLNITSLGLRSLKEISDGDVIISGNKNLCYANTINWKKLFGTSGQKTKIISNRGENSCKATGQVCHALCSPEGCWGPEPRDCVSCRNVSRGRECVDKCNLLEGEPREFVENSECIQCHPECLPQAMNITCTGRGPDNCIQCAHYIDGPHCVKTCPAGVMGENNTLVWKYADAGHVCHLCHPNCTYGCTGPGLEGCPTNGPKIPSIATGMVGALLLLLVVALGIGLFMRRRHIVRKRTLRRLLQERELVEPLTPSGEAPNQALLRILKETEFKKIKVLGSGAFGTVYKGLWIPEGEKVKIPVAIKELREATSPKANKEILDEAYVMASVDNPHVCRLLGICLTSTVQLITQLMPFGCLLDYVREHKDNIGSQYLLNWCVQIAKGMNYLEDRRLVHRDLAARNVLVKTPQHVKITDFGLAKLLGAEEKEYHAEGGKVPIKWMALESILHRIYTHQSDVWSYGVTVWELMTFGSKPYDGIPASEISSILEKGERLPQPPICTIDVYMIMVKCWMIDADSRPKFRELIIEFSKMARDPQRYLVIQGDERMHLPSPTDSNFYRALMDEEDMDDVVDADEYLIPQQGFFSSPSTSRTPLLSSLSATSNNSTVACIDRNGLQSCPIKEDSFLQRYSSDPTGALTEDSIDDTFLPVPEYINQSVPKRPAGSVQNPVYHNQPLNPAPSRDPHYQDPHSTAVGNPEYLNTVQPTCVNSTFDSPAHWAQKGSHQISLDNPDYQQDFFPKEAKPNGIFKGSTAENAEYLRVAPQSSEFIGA

EGFR (murine) [30] = biological target: EGFR (murine) (UniProt P00533); conditions: f/l-herc; remark: listed apart in the source

EGFR (human), sequence (P00533 whole entry, looked up): as above
EGFR, sequence (P00533 whole entry, looked up): as above

- IC50 (EGFR (human) [1]): 0.009 µM
Compound: Cc1nnc(-c2ccc3ncnc(Nc4ccc(OCc5cc(F)cc(F)c5)cc4)c3c2)o1

- IC50 (EGFR (human) [1]): 0.2 µM
Compound: c1ccc(COc2ccc(Nc3ncnc4ccc(-c5ccc(CNCc6cccnc6)o5)cc34)cc2)cc1

- IC50 (MAPK14 [4]): 30 µM
Compound: Cn1cnc2c(NCc3ccccc3)nc(NCCO)nc21

- IC50 (MAPK14 [8]): > 30 µM
- IC50 (MAPK14 [9]): > 30 µM
Compound: O=C(CNS(=O)(=O)c1ccc(CNC(=O)c2ccc(Cl)cc2)s1)NCCNc1ncc(C(F)(F)F)cc1Cl

- IC50 (EGFR (human) [10]): 0.077 µM
Compound: Brc1cccc(Nc2ncnc3cc4c(ccn4CCCN4CCOCC4)cc23)c1

- IC50 (CDK2 (human) [12]): > 5 µM
- IC50 (CDK2 (human) [13]): > 5 µM
Compound: CCC(C)Cn1c(=O)cc(C)c2cnc(Nc3ccc(N4CCNCC4)cc3)nc21 (stereo unspecified)

- IC50 (EGFR (human) [14]): 1.2 µM
- IC50 (EGFR [15]): 0.15 µM
Compound: CO[C@@H](C#CC(=O)Nc1ccc2ncc(C#N)c(Nc3cccc(Br)c3)c2c1)CN1CCCC1

- IC50 (MAP2K1;MAPK14 (human) [16]): 0.045 µM
- IC50 (MAP2K1;MAPK14 (human) [17]): 0.007 µM
Compound: CCN1CCN(CCCOc2cc3ncc(C#N)c(Nc4ccc(Sc5nccn5C)c(Cl)c4)c3cc2OC)CC1
- T/C (MAP2K1;MAPK14 (mice)): 44%

- IC50 (CDK2 [18]): > 100 µM
- IC50 (CDK2 [19]): > 100 µM
Compound: Cn1c2ccccc2c2cc[n+]3c(c21)C(=O)c1ccccc1-3

- IC50 (PIK3CG (human)): < 1 µM
Compound: COc1ccccc1Cn1cnc2ccc(/C=C3\SC(=O)NC3=O)cc21

- IC50 (CDK2 (human) [20]): 0.39 µM
- IC50 (EGFR [21]): > 10 µM
- IC50 (MAPK14 [22]): > 10 µM
Compound: COCCNS(=O)(=O)c1ccc(Nc2nccc(-c3cnc4cccnn34)n2)cc1

- IC50 (EGFR (human) [23]): 0.8 µM
- IC50 (EGFR (human) [24]): > 1.56 µM
Compound: COc1cc2ncnc(N[C@H](CO)c3ccccc3)c2cc1OC

- IC50 (EGFR (human) [23]): 1.31 µM
- IC50 (EGFR (human) [24]): 5.3 µM
Compound: COc1cc2ncnc(N[C@H](COC(C)=O)c3ccccc3)c2cc1OC

- IC50 (MAP2K1;MAPK14 (human) [16]): 0.04 µM
- IC50 (MAP2K1;MAPK14 (human) [17]): 0.029 µM
- IC50 (MAP2K1;MAPK14 (human) [26]): 0.05 µM
Compound: COc1cc2c(Nc3ccc(Sc4nccn4C)c(Cl)c3)c(C#N)cnc2cc1OCCCN1CCOCC1

- IC50 (EGFR (murine) [29]): > 10 µM
- IC50 (EGFR (murine) [30]): 0.138 µM
Compound: CN1C2CC[C@]1(Nc1ncc3ncnc(Nc4ccc(F)c(Cl)c4)c3n1)CC(O)C2 (stereo partly specified)

Continued, compound first:

Compound: Cc1cc(C)c(N(C)C)c(C)c1Cc1nc(-c2ccncc2)c(-c2ccc(Cl)cc2)[nH]1
- IC50 (EGFR [2]): 0.05 µM

Compound: Cc1ccc(S(=O)(=O)Nc2ccc3c(c2)CNC(=O)N3c2c(Cl)cccc2Cl)cc1
- IC50 (MAPK14 (human) [3]): > 10 µM

Compound: N#C/C(=C\c1ccc(O)c(O)c1)C(N)=O
- IC50 (EGFR [5]): > 1000 µM
- Ki (EGFR (human) [6]): 3.5 µM

Compound: Nc1c2ccccc2nc2c1ccc1ncccc12
- cell viability (EGFR (human) [7]): > 90%

Compound: Nc1cc(OCC2CCCCC2)nc(N)n1
- GI50 (CDK2;CDK1): > 100 µM

Compound: COCC1COc2cc3ncnc(Nc4cccc(Br)c4)c3cc2O1 (stereo unspecified)
- GI50 (EGFR (human) [11]): 0.6 µM and 0.24 µM

Compound: N=C(N)NC[C@H]1CC[C@H](C(=O)NC2=CC=NC3NN=CC23)CC1 (stereo partly specified)
- IC50 (ROCK2): 0.47 µM

Compound: Cn1cnc2c(OCC3CCCCC3)nc(N)nc21
- GI50 (CDK2;CDK1): > 100 µM

Compound: Cc1cc(C(=O)N2CCOCC2)[nH]c1/C=C1/C(=O)Nc2ncnc(N3CCCCC3)c21
- IC50 (EGFR [25]): > 20 µM

Compound: Nc1c2c(nc3ccccc13)-c1cccnc1CC2
- cell viability (EGFR (human) [7]): > 90%

Compound: O=C(Nc1ccc2[nH]cc(CCc3ccncc3)c2c1)c1cc(F)cc(N2CCOCC2)c1
- IC50 (MAPK14 (human) [27]): 0.53 µM

Compound: Nc1ccc(-c2cc(Nc3ccc(S(N)(=O)=O)cc3)[nH]n2)cc1
- IC50 (EGFR [28]): > 10 µM

Reference: the Kinase Knowledgebase extract (Sharma et al. 2016)
